According to article PMC8881573, “Inhibition of SRP-dependent protein secretion by the bacterial alarmone (p)ppGpp” (Nature Communications, 2022):
Several values for one entry are separate records, joined by “and”; a condition that tells them apart may be missing. Identical values can stand only once.

Experiments:
(Bs)Ffh-NG [1] = molecular target: T1, (Bs)Ffh-NG (Bacillus subtilis, UniProt P37105); experiment: Microscale thermophoresis (MST) ligand binding; parameters: species or system B. subtilis; conditions: NG domain labeled with NT 647, 21 °C
T1 construct: purified NG domains of (Ec)Ffh, (Ec)FtsY and (Bs)Ffh; His6 (N); made in house; host or cells: E. coli Rosetta pLysS
T1 sequence (P37105 1-297 limits assumed): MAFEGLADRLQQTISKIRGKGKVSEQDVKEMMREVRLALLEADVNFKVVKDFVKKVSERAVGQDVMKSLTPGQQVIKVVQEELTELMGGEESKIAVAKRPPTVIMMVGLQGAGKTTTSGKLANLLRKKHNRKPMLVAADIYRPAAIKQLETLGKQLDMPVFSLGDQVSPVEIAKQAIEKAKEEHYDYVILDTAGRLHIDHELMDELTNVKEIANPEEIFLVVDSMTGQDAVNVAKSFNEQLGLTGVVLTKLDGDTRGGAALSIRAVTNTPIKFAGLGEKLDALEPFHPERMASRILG
Method: (§1) Ligand binding assays with purified NG domains of (Ec)Ffh, (Ec)FtsY and (Bs)Ffh proteins were carried out by microscale thermophoresis (MST)[80]. All experiments were performed on a Monolith NT.115 (NanoTemper Technologies GmbH, Munich, Germany; software: NanoTemper Control Version 2.0.2.29) at 21 °C (red LED power was set to 50–100% and infrared laser power to 75%). After labeling of primary amines within (Ec)Ffh, (Ec)FtsY, and (Bs)Ffh (50 µM each) with the dye NT 647 (according to the manufacturers protocol), the proteins were re-buffered in SEC buffer containing 20 mM HEPES-Na, 20 mM KCl, 20 mM MgCl2, 200 mM NaCl (final pH 7.5), 10 mg ml^−1 BSA and 0.007% Tween. Two-hundred nanomolar of (Ec)Ffh, (Ec)FtsY, and (Bs)Ffh were titrated with GDP, GTP, ppGpp, and pppGpp starting from a concentration ranging between 0.75 and 3 mM, respectively. At least six independent MST experiments per ligand and protein were recorded at 680 nm and analyzed using NanoTemper Analysis version 1.5.37 and 1.2.009, and Origin8G software suits.

(Ec)FtsY-NG [2] = molecular target: T2, (Ec)FtsY-NG (Escherichia coli, UniProt P10121); experiment: Microscale thermophoresis (MST) ligand binding; parameters: species or system E. coli; conditions: NG domain labeled with NT 647, 21 °C
T2 construct: purified NG domains of (Ec)Ffh, (Ec)FtsY and (Bs)Ffh; His6 (C); made in house; host or cells: E. coli BL21 (DE3)
T2 sequence (P10121 197-497): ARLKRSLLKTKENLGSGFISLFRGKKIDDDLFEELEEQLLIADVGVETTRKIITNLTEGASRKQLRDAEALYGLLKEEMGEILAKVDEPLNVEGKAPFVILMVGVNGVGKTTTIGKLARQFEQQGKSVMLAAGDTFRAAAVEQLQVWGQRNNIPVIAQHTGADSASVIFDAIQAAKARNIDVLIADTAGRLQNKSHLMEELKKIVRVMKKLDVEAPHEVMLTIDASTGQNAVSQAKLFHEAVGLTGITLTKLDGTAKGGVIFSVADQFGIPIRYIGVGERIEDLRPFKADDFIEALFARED
Method: as §1

(Ec)Ffh-NG [3] = molecular target: T3, (Ec)Ffh-NG (Escherichia coli, UniProt P0AGD7); experiment: Microscale thermophoresis (MST) ligand binding; parameters: species or system E. coli; conditions: NG domain labeled with NT 647, 21 °C
T3 construct: purified NG domains of (Ec)Ffh, (Ec)FtsY and (Bs)Ffh; His6 (C); made in house; host or cells: E. coli BL21 (DE3)
T3 sequence (P0AGD7 1-296): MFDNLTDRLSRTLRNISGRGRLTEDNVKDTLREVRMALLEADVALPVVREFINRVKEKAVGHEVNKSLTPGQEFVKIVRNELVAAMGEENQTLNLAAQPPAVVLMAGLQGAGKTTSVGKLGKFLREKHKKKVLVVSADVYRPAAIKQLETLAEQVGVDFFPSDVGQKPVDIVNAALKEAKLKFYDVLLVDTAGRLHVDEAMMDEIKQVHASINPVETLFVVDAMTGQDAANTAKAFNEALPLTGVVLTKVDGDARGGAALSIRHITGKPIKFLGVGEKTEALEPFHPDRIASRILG
Method: as §1

(Bs)Ffh-NG [4] = molecular target: T1, (Bs)Ffh-NG; experiment: Isothermal titration calorimetry (ITC) of nucleotide binding; parameters: species or system B. subtilis; conditions: NG domain, 25 °C, one set of sites model
Method: (§2) Ligands and proteins (purified NG domains of (Ec)Ffh, (Ec)FtsY and (Bs)Ffh) were diluted with a buffer containing 20 mM HEPES-Na (pH 7.5), 200 mM NaCl, 20 mM MgCl2 and 20 mM KCl. The NG domains of (Ec)Ffh, (Ec)FtsY and (Bs)Ffh were titrated in the sample-cell at a nominal concentration of 25 µM each. The nucleotides GDP, GTP, ppGpp and pppGpp (Jena Bioscience, Germany) were placed in the syringe and their concentrations were predetermined by absorbance at 252 nm to saturate the protein samples during the titrations. All the measurements were performed at 25 °C with the instrument MicroCal PEAQ-ITC (©Malvern Panalytical) with a method consisting of 13 injections (first 0.4 µL, and the rest 3 µL each) and 150 s of spacing. The raw data (see source) were processed with the MicroCal PEAQ-ITC Analysis Software (©Malvern Panalytical) using the “one set of sites” models.

(Ec)FtsY-NG [5] = molecular target: T2, (Ec)FtsY-NG; experiment: as above; parameters: species or system E. coli; conditions: NG domain, 25 °C, one set of sites model
Method: as §2

(Ec)Ffh-NG [6] = molecular target: T3, (Ec)Ffh-NG; experiment: as above; parameters: species or system E. coli
Method: as §2

| Compound | Kd ((Bs)Ffh-NG [1]) | Kd ((Ec)FtsY-NG [2]; read-out: (Ec)FtsY KD MST) | Kd ((Ec)Ffh-NG [3]) | Kd ((Bs)Ffh-NG [4]) | Kd ((Ec)FtsY-NG [5]) | Kd ((Ec)Ffh-NG [6]) | Kd ((Ec)FtsY-NG [2]; (Ec)FtsY KD MST) |
| --- | --- | --- | --- | --- | --- | --- | --- |
| Nc1nc2c(ncn2[C@@H]2O[C@H](COP(=O)(O)OP(=O)(O)O)[C@@H](O)[C@H]2O)c(=O)[nH]1 [GDP] | 9.23 ± 0.99 µM | 9.6 µM and 9.63 µM | 7.9 µM and 7.94 µM | 1.2 ± 0.7 µM | 9.8 ± 1.1 µM | 2.2 ± 0.6 µM | – |
| Nc1nc2c(ncn2[C@@H]2O[C@H](COP(=O)(O)OP(=O)(O)OP(=O)(O)O)[C@@H](O)[C@H]2O)c(=O)[nH]1 [GTP] | 30.3 µM | – | 62.3 µM | 0.6 ± 0.5 µM | – | 0.7 ± 0.5 µM | 63.8 µM |
